Source: patent US20050026785A1, “Novel phenyl-propargylether derivatives” (priority 2001, published 2005)

How the values were obtained:
Assay type in all cases: in vivo
[1] = system: Plasmopara viticola; assay: D-1b Residual-curative action against Plasmopara viticola on vines; settings: test D-1b residual-curative, vine seedlings, untreated plants showed pathogen attack of 80-100%, read-out: inhibition of fungal infestation
Protocol: (§1) D-1: Action against Plasmopara viticola on vines
b) Residual-Curative Action
Vine seedlings are infected at the 4- to 5-leaf stage with a sporangia suspension of the fungus. After incubation for 24 hours in a humidity chamber at 95-100% relative humidity and +20° C., the infected plants are dried and sprayed with a spray mixture (0.02% active ingredient) prepared from a wettable powder formulation of the test compound. After the spray coating has dried, the treated plants are placed in the humidity chamber again. Fungus infestation is evaluated 6 days after infection.

[2] = system: Phytophthora; assay: D-3b Systemic action against Phytophthora on potato plants; settings: test D-3b systemic (soil watering), potato plants (Bintje), untreated plants showed pathogen attack of 80-100%, read-out: inhibition of fungal infestation
Protocol: (§2) D-3: Action against Phytophthora on potato plants
2-3 week old potato plants (Bintje variety) are watered with a spray mixture (0.02% active ingredient based on the volume of the soil) prepared from a wettable powder formulation of the test compound. […] After 48 hours, the treated plants are infected with a sporangia suspension of the fungus. Fungus infestation is evaluated after incubation of the infected plants for 4 days at 90-100% relative humidity and +20° C. Fungal infestation is effectively controlled with compounds of Tables 1 to 31.

[3] = system: Phytophthora; assay: D-2a Residual-protective action against Phytophthora on tomato plants; settings: test D-2a residual-protective, untreated plants showed pathogen attack of 80-100%, read-out: inhibition of fungal infestation
Protocol: (§3) D-2: Action against Phytophthora on tomato plants
(§4) a) Residual-protective action
After a cultivation period of 3 weeks, tomato plants are sprayed with a spray mixture (0.02% active ingredient) prepared from a wettable powder formulation of the test compound. After 48 hours, the treated plants are infected with a sporangia suspension of the fungus. Fungus infestation is evaluated after incubation of the infected plants for 5 days at 90-100% relative humidity and +20° C.

[4] = system: Phytophthora; assay: D-2b Systemic action against Phytophthora on tomato plants; settings: test D-2b systemic (soil watering), untreated plants showed pathogen attack of 80-100%, read-out: inhibition of fungal infestation
Protocol: as §3
After a cultivation period of 3 weeks, tomato plants are watered with a spray mixture (0.02% active ingredient based on the volume of the soil) prepared from a wettable powder formulation of the test compound. […] After 96 hours, the treated plants are infected with a sporangia suspension of the fungus. Fungus infestation is evaluated after incubation of the infected plants for 4 days at 90-100% relative humidity and +20° C.

[5] = system: Phytophthora; assay: D-3a Residual-protective action against Phytophthora on potato plants; settings: test D-3a residual-protective, potato plants (Bintje), untreated plants showed pathogen attack of 80-100%, read-out: inhibition of fungal infestation
Protocol: as §2, §4
2-3 week old potato plants (Bintje variety) are sprayed with a spray mixture (0.02% active ingredient) prepared from a wettable powder formulation of the test compound. After 48 hours, the treated plants are infected with a sporangia suspension of the fungus. Fungus infestation is evaluated after incubation of the infected plants for 4 days at 90-100% relative humidity and +20° C.

[6] = system: Plasmopara viticola; assay: D-1a Residual-protective action against Plasmopara viticola on vines; settings: test D-1a residual-protective, vine seedlings, untreated plants showed pathogen attack of 80-100%, read-out: inhibition of fungal infestation
Protocol: as §1, §4
Vine seedlings are sprayed at the 4- to 5-leaf stage with a spray mixture (0.02% active ingredient) prepared from a wettable powder formulation of the test compound. After 24 hours, the treated plants are infected with a sporangia suspension of the fungus. Fungus infestation is evaluated after incubation for 6 days at 95-100% relative humidity and +20° C.

Measured: inhibition at 200 ppm

C#CCOc1ccc(CCNC(=O)[C@@H](OCC#C)c2ccccc2)cc1OC [Compound E1.002, (S)-2-phenyl-N-[2-(3-methoxy-4-prop-2-ynyloxy-phenyl)-ethyl]-2-prop-2-ynyloxy-acetamide]
80 to 100%: all assays above

C#CCOc1ccc(CCNC(=O)[C@@H](OCC#C)c2ccc(Cl)cc2)cc1OC [Compound E1.011, (S)-2-(4-chloro-phenyl)-N-[2-(3-methoxy-4-prop-2-ynyloxy-phenyl)-ethyl]-2-prop-2-ynyloxy-acetamide]
80 to 100%: all assays above

CCC#CCOc1ccc(CCNC(=O)[C@@H](OCC)c2ccccc2)cc1OC [Compound E1.151]
80 to 100%: [3] | [4]
